*1 amine or outer side, *2 acyl side, *3 side chain or, on linkers, in order; H or OH if unused. Where a SMILES comes first, the peptide text is derived from it. Bridges are numbered along the chain shown (N, C = ends). Roman numbers before positions name the chains, in order. [ ]: non-standard residue; d: D form. Actinocin(9to1) = Cc1c2oc3c(C)ccc(C(=O)[*:1])c3nc-2c(C(=O)[*:2])c(N)c1=O; NMeV = CN[C@H](C(=O)O)C(C)C; Sar = CNCC(=O)O
Legend:
Creb1, Bdnf, Rbbp4 = assay: Plasticity gene expression by quantitative real time PCR in mouse primary neurons; format: cell-based; conditions: for effect on 2-DG led increase in Bdnf gene expression: increasing concentrations co-treated with 2-DG
Description: Primary immature neuronal cultures were prepared from cerebral cortex of E14 embryos (day 14 of gestation) of CD1 mice under sterile conditions. Dissected cortices were incubated at 37° C. for 20 min in EBSS solution containing papain, L-cystine and EDTA, which was activated at 37 °C for 30 min and then was filtered through […] (Millipore, catalog number—SCGP00525). Cortices were then mechanically dissociated by trituration with glass pipettes. The rDNase was added in dissociated cells followed by incubation of these dissociated cells at 37 °C for 3 min. Thereafter, these cells were centrifuged at 2800 rpm for 5 min. Then supernatant was discarded, and cell were resuspended gently in a 5 ml mixture of EBSS and 10/10 solution (4:1 ratio). Then 5 ml of 10/10 solution was added gently on top and these resuspended cells were centrifuged at 2800 rpm for 10 min. Supernatant was again discarded and cells were resuspended in 10 ml MEM, Glutamax supplement (Thermo Fisher Scientific, Catalog number—41090036) containing 10% heat inactivated fetal bovine serum (Thermo Fisher Scientific, Catalog number—16140071), 5% heat inactivated horse serum (Thermo Fisher Scientific, Catalog number—26050088), and 1% penicillin/streptomycin (Thermo Fisher Scientific, Catalog number—15140122). Thereafter, resuspended cells were filtered through 70-micron cell strainer (Thomas Scientific, catalog number—4620F02) followed by their counting through Hemocytometer. Cells were, finally, plated at the density of 1 million cells/ml onto poly-D-Lysine (PDL; Sigma Aldrich, catalog number—P6407-10X5MG) coated pates and placed in CO2-buffered incubators at 37° C.
(§1) Total RNA was extracted from primary cortical neurons using NucleoSpin RNA II Kit (Clontech, Catalog number—740955-250). Thereafter, using the Taqman RNA-to-Ct, one step kit (Thermo Fisher Scientific, catalog number—4392938) and following the manufacturer's instructions, […] from each sample was mixed with the Taqman® Gene Expression Master Mix and Taqman® Gene Expression Assays for Creb1 (Catalog number—Mm00501607_m1), Bdnf (Catalog number—Mm04230607_s1), Rbbp4 (Catalog number—Mm00771401_g1), Bip (Catalog number—Mm00517691_m1), Trib3 (Catalog number—Mm00454879_m1), and Chac1 (Catalog number—Mm00509926_m1) with FAM labelled probe and Actin with VIC labelled probe all from Thermo Fisher Scientific on an Applied Biosystems 7500 Fast Real Time PCR System. For assessing gene expression of various specific Bdnf exons in mouse primary neurons, two step qPCR was used. Total RNA from primary cortical neurons was extracted using NucleoSpin RNA II Kit (Clontech, Catalog number—740955-250) and a total of 1.5 μg RNA was used to synthesize cDNA with the SuperScript® III First-Strand Synthesis System (Thermo Fisher Scientific, Catalog number—18080051). Quantitative RT-PCR was then performed using SYBR green (Thermo Fisher Scientific, Catalog number—4309155) on an Applied Biosystems 7500 Fast Real Time PCR System. Quantitative levels for all genes were normalized to the housekeeping gene GAPDH and expressed relative to the relevant control samples as fold change. The sequences of primers used in this part of the study were as follows: Bdnf I forward: […] (SEQ ID NO:9) and Bdnf I reverse: […] (SEQ ID NO:10); Bdnf II forward: […] (SEQ ID NO:11) and Bdnf II reverse: […] (SEQ ID NO:12); Bdnf IV forward #2: […] (SEQ ID NO:13) and Bdnf IV reverse #2: […] (SEQ ID NO:14); Bdnf VI forward: […] (SEQ ID NO:15) and Bdnf VI reverse: […] (SEQ ID NO:16); Bdnf VII forward: […] (SEQ ID NO:17) and Bdnf VII reverse: […] (SEQ ID NO:18) Bdnf IX forward: […] (SEQ ID NO:19) and Bdnf IX reverse: […] (SEQ ID NO:20); Gapdh forward #2: […] (SEQ ID NO:21) and Gapdh reverse #2: […] (SEQ ID NO: 22).

Bdnf = Bdnf gene expression in hippocampal slices submerged in ACSF; design: species or system mouse; conditions: 1 μg/ml with 2-DG 10 mM in ACSF
hippocampal slices = assay: Long term potentiation (fEPSP) in submerged hippocampal slices; design: species or system mouse; conditions: 1 μg/ml with 2-DG 10 mM, 6 h, hippocampal slices
From the text: Brains were quickly removed from mice sacrificed by cervical dislocation and placed in cold artificial cerebrospinal fluid (ACSF) (bubbled with 95% O2/5% CO2) containing (in mM): 124 NaCl, 4 KCl, 1 Na2HPO4, 25 NaHCO3, 2 CaCl2, 2 MgCl2, and 10 glucose. The pH and osmolarity of the solution were 7.4 and 310 mOsm/L, respectively. The hippocampus was isolated and placed on a mechanical tissue chopper to produce transverse hippocampal slices of 400 μm thickness. […] Hippocampal slices were allowed to recover for at least 90 min prior to beginning the experiment. For recordings, glass electrodes were filled with ACSF and positioned in the CA1 stratum radiatum to record fEPSPs evoked by local stimulation (0.1 ms) of Schaffer collateral fibers using a bipolar concentric electrode placed laterally to the recording electrode (˜150 μm). For LTP recordings, the voltage intensity of the stimulation test pulse (square pulse, 100 us duration) for each slice was determined to be the voltage intensity that had generated 30-40% of the maximum slope obtained using input-output relationships. Facilitation was calculated as the ratio of the slopes of the second and first fEPSPs, and plotted as a function of the inter-pulse duration. For LTP, a test pulse was applied every minute. […] Residual potentiation was calculated as the average of the last 15 min of 2 h of recordings.

[1] = test system: Trib3 promoter, Bdnf promoter; assay: Promoter reporter luciferase assay in primary neurons; format: cell-based, mouse; conditions: 5 μM co-treated with 2-DG 10 mM, 9 h
Description: Primary neurons were co-transfected with various plasmids such as different Bdnf exon promoters each tagged with firefly luciferase or Trib3 promoter tagged with firefly luciferase and pTK-renilla luciferase plasmid at 1:10 ratio using Lipofectamine 2000 (Thermo Fisher Scientific, catalog number—11668019) according to the manufacturer's instructions to control for transfection efficiency. […] Thereafter, luciferase activity was measured using dual luciferase assay kit (Promega) and bioluminometer (MDS Analytical Technologies). Final luciferase activity was calculated by normalizing firefly luciferase activity with Renilla luciferase activity and then the valued were converted to fold change with respect to control.

Trib3, Chac1, Bip = assay: Expression of ATF4 target genes and chaperone Bip in mouse primary neurons; format: cell-based; conditions: for effect on glucosamine induced expression of Trib3: co-treatment with glucosamine, primary neurons
Description: as §1

[2] = 5 μM co-treated with 2-DG 10 mM, 9 h
[3] = 3 μM, 6 h, mouse primary neurons

For Cc1c2oc3c(C)ccc(C(=O)N[C@@H]4C(=O)N[C@H](C(C)C)C(=O)N5CCC[C@H]5C(=O)N(C)CC(=O)N(C)[C@@H](C(C)C)C(=O)O[C@@H]4C)c3nc-2c(C(=O)N[C@@H]2C(=O)N[C@H](C(C)C)C(=O)N3CCC[C@H]3C(=O)N(C)CC(=O)N(C)[C@@H](C(C)C)C(=O)O[C@@H]2C)c(N)c1=O [ActD, actinomycin D] (I: T[dV]P[Sar][NMeV] / II: T[dV]P[Sar][NMeV]; ester I:1-I:C, II:1-II:C; linker I:N-II:N via Actinocin(9to1)), the “effect on 2-DG led increase in plasticity genes Creb1, Bdnf and Rbbp4” value (Creb1, Bdnf, Rbbp4; co-treatment with 2-DG, 6 h, mouse immature primary neurons) was “completely blocked”, the “effect on 2-DG led increase in Bdnf gene expression in hippocampal slices” value (Bdnf) was “able to block” and the “effect on 2-DG led induction in LTP” value (hippocampal slices) was “completely blocked”.
O=C[C@H](O)[C@@H](O)[C@H](O)[C@H](O)CO [D-glucose] was tested, and the “effect on 2-DG led increase in Bdnf gene expression” value (Creb1, Bdnf, Rbbp4; 6 h, mouse primary neurons) was “decreased 2-DG led increase in Bdnf gene expression in a dose dependent manner”.
For O=C[C@@H](O)[C@@H](O)[C@H](O)[C@H](O)CO [D-mannose], the “effect on 2-DG led increase in Bdnf gene expression” value (Creb1, Bdnf, Rbbp4; 6 h, mouse primary neurons) was “decreased 2-DG led increase in Bdnf gene expression in a dose dependent manner”.
In the case of Cn1cc(-c2ccc3c(c2)CCN3C(=O)Cc2cccc(C(F)(F)F)c2)c2c(N)ncnc21 [GSK2606414, 7-methyl-5-(1-{[3-(trifluoromethyl)phenyl]acetyl}-2,3-dihydro-1H-indol-5-yl)-7H-pyrrolo[2,3-d]pyrimidin-4-amine], the “effect on 2-DG led increase in Bdnf expression (mRNA)” value (Creb1, Bdnf, Rbbp4; [2]) is reported as “blocked”, the “effect on glucosamine led increase in Bdnf gene expression” value (Creb1, Bdnf, Rbbp4; co-treatment with glucosamine, primary neurons) is reported as “blocked” and the “effect on 2-DG led increase in Bdnf promoter activity” value [1] is reported as “blocked”. For the same compound, the “effect on 2-DG led increase in Trib3 promoter activity” value [1] was “completely blocked”, the “effect on 2-DG led increase in Trib3 expression (mRNA)” value (Trib3, Chac1, Bip; [2]) was “completely blocked” and the “effect on glucosamine induced expression of Trib3” value (Trib3, Chac1, Bip) was “blocked”. For the same compound, the “effect on glucosamine induced expression of Trib3” value (Trib3, Chac1, Bip; listed as PERK inhibitor I) was “completely blocked”.
For N[C@H]1C(O)O[C@H](CO)[C@@H](O)[C@@H]1O (stereo partly shown) [glucosamine], the “glucosamine induced expression of plasticity genes in combination with actinomycin D” value (Creb1, Bdnf, Rbbp4; 6 h, mouse immature primary neurons) was “transcription dependent” and the “expression of plasticity genes Creb1, Bdnf and Rbbp4 (mRNA)” value (Creb1, Bdnf, Rbbp4; increasing concentrations, 6 h, mouse primary neurons) was “dose dependent increase”.
For tunicamycin, the “expression of plasticity genes Creb1 and Bdnf” value (Creb1, Bdnf, Rbbp4; [3]) was “increase” and the “gene expression of chaperone Bip” value (Trib3, Chac1, Bip; [3]) was “increase”.
